This is an account of results in patent US6740678B2, “Method of treatment of cardiovascular injuries” (Children's Medical Center Corporation, priority 1998, dated 2004).

The nature of series [1]: Animal health, weight and tolerability during treatment. It is filed as in vivo, mice. As to the method: Animal health and weight was monitored throughout treatment.
(§1) The Apo E-/-mice received 20 mg/kg of endostatin subcutaneously every day.

Series [2] deals with Apo E-/-mice. Description: Extent of atherosclerosis in the entire aorta (Sudan IV stained lesions, photographed aortas). It is filed as in vivo. Particulars: for Median percent plaque area of the entire aorta (Sudan IV-positive lesions): early-stage experiment, treated age 6 to 22 weeks, control 14.4%; for Plaque surface area on photographed images of the entire aorta: treated 20 to 36 weeks, not shown. The source says: (§2) After 16 weeks of treatment, animals were euthanized with methoxyflurane. A blood sample was obtained from the right ventricle for the analysis of serum cholesterol, performed by an automated calorimetric assay on a Hitachi 917 instrument (Children's Hospital, Boston, Mass.). The heart and aorta were perfusion-fixed with 2% paraformaldehyde and dissected as described (Palinski, W., et al., Arterioscler. Thromb. 14: 605-16, 1994; Tangirala, R. K., et al., J. Lipid Res. 36:2320-8, 1995). Atherosclerotic plaques in the aortas were used for histology and plaque areas were only determined at the aortic origin (Paigen, B., et al., Artherosclerosis 68: 231-40, 1987). However, to document the extent of disease in the total aorta, the unopened aortas were photographed.
(§3) The effects of these angiogenesis inhibitors on late stage lesions were then compared to their effects on early lesions, in which intimal vessels were rarely observed. Animals were treated with endostatin or TNP-470 from age 32 to 48 weeks (late-stage experiment) or from 6 to 22 weeks (early-stage experiment). Plaque involvement was measured at the aortic origin. Since the aortas from early stage animals were not used for immunohistochemistry in these experiments, the extent of atherosclerosis was also measured in the entire aorta (percent surface area of Sudan IV stained-lesions; Paliniski, W., et al., Arteriosclr. Thromb. 14: 605-16, 1994).
(§4) Plaque Area. To determine the extent of atherosclerosis at the aortic origin, 40 serial sections (8-10 Tm thickness) of the aortic sinus were collected on 10 slides (Paigen, B., et al., Artherosclerosis 68: 231-40, 1987). Every second slide was stained with hematoxylin and eosin for morphometry. The rest were used for immunohistochemistry to count intimal vessels and determine intimal smooth muscle cell contents. Plaque images were captured at 100× magnification with a Hitachi HV-C20 3CCD digital camera and measured with the Leica Q500MC image analysis program (Dong, Z. M., et al., J. Clin. Invest. 102: 145-52, 1998). Lesion area for each animal was reported as the mean intimal cross-sectional area (mm^2). In the early-stage experiment, plaque involvement in the entire aorta was also measured by image analysis as the percentage of aortic surface area covered with lesions (Tangiala, R. K., et al., J. Lipid. Res. 36: 2320-8, 1995; Dong, Z. M., et al., J. Clin. Invest. 102: 145-52, 1998)

A further series concerns primary tumor growth. The settings on record: 20 mg/kg per day s.c.; Boehm 1997; cited from earlier work.
Series [3] relates to Apo E-/-mice. Description: Plaque area at the aortic origin in cholesterol-fed Apo E-/- mice. Particulars: for Plaque measurements at the aortic origin versus control: early-stage experiment, treated age 6 to 22 weeks, not shown; for Inhibition of plaque growth: age 20 to 36 weeks, [100][1-(median treated-0.25)/(median control-0.25)]. It is filed as in vivo.
Text: Male Apo E-/-mice (Jackson Labs, Bangor Me.) were fed a 0.15% cholesterol diet (Western Type #88137, Teklad) from age 6-8 weeks. At 20 weeks of age, ten animals were sacrificed to evaluate the baseline extent of atherosclerosis.
as §2, §3, §1
The fumagillin analogue TNP-470 was provided for these studies by TAP Holdings, Deerfield Ill. An injection solution of TNP-470 (3 mg/ml) was freshly prepared and mice received 30 mg/kg subcutaneously every other day. Control animals received a similar volume of saline or endostatin buffer.
as §4

The subject of series [4] is Apo E-/-mice. Description: Intimal vessels in aortic sinus plaques by immunohistochemistry (CD31, vWf). It is filed as in vivo. The settings on record: for Neovascularization (+) aortic sinus plaques (number): of 22 (endostatin) and 27 (TNP-470) plaques, control 7 of 24; for Percentage of aortic sinus plaques that contained any intimal vessels: treated mice, control 29%. The protocol:
To detect intimal capillaries, the hearts and portions of the descending aorta with substantial lesions were embedded in paraffin, sectioned (10 μm), digested with 0.02% protease XXIV (Sigma) for 6 minutes at room temperature, and incubated with rabbit polyclonal anti-human vWf antibody (Dako, Carpinteria, Calif., 1:500 dilution) or rat monoclonal anti-mouse CD31 antibody (Pharmigen, San Diego, Calif., 20 Tg/ml). When acetone-fixed frozen sections were stained, the CD31 antibody was used at 5 Tg/ml. The bound antibodies against vWf or CD31 were detected with biotinylated goat anti-rabbit or rabbit anti-rat (mouse absorbed) antibodies (Vector, Burlinghame, Calif., 1:250 dilution) and the avidin-biotin peroxidase complex (ABC standard kit, Vector). A red reaction product was produced with 3-amino-9-ethyl carbazole substrate (AEC, Dako) and sections were counterstained with Gill's hematoxylin (Sigma). Vascular sections incubated with non-immune serum served as negative controls. Positive staining of the endothelium on the lumen and in adventitial capillaries served as an internal control. Intimal vessels were identified under high power (400×) and counted when both an endothelial cell nucleus and lumen were seen and when the vessel was also observed in an adjacent section.
as §4

Series [5] relates to Apo E-/-mice. Description: Plaque cell density of aortic sinus lesions. The settings on record: aortic sinus plaques, median (range), control 1183. It is filed as in vivo. As to the method: Plaque cell density. Cell densities in aortic sinus plaques were evaluated to determine if endostatin or TNP-470 treatments affected lesion cellularity. Cell nuclei in the intima of the aortic sinus plaques were counted at three mid-lesion levels (slides 4, 6, and 8). Cell density was reported as the number of cells per intimal area (cells/mm^2).

Series [6] relates to Apo E-/-mice. Description: Intimal smooth muscle cell content of aortic sinus lesions. It is filed as in vivo. The settings on record: median (range), control 20.4. As to the method: Smooth muscle cells were identified with a monoclonal IgG2a antibody against human smooth muscle cell I actin (Dako, M0851; Nakashima, Y., et al, Arteriocler. Thromb. 14: 133-40, 1994). Sections were immersed in 0.1 M sodium citrate, pH 6.0 and heated for 10 minutes in the microwave. Primary antibody was bound to sections at 3 Tg/ml and then visualized with biotinylated anti-mouse IgG2a antibody (1:200 dilution, Amersham RPN1181) and the ABC method described above. The adjacent medial layer of vessels served as positive control.
Intimal smooth muscle cell content. To determine if angiogenesis inhibitor treatments affected smooth muscle cell migration or proliferation in lesions, two slides from the middle of the aortic sinus were stained for smooth muscle cell α actin. For each animal, the number of intimal smooth muscle cells and total cell nuclei were counted in 8 non-overlapping fields. A smooth muscle cell was counted only if it stained for smooth muscle cell α actin and its cell nucleus was seen. The mean percentage of smooth muscle cells relative to total cells was determined for each animal.

The subject of a further series is angiogenesis. Particulars: corneal micropocket assay; Ingber 1990; cited from earlier work.
Where [7] appears, read: first experiment, treated age 20 to 36 weeks, endostatin 20 mg/kg s.c. daily, TNP-470 30 mg/kg s.c. every other day, control 0.751, baseline 0.250.
The mark [8] stands for this setting: late-stage experiment, treated age 32 to 48 weeks, control 0.584.
The mark [9] stands for this setting: second experiment, treated 20 to 36 weeks, control 0.690.

Regarding endostatin, the Tolerability of injections result in series [1] (20 mg/kg s.c. every day) is on record as “tolerated the injections”. Moreover, the “Percentage of animals available for analysis” value in series [1] (mouse, in vivo) stood at 92%. Moreover, in the series on Apo E-/-mice [2], the “Median percent plaque area of the entire aorta (Sudan IV-positive lesions)” value amounted to 9.6%. Moreover, the “Plaque surface area on photographed images of the entire aorta” value in the series on Apo E-/-mice [2] was “noticeable reduction”. Besides, the “Inhibition of primary tumor growth” value with primary tumor growth was “over 95%”. Besides, in the series on Apo E-/-mice [3], the “Plaque measurements at the aortic origin versus control” value is recorded as “no difference”. Further, the “Inhibition of plaque growth” value in the series with Apo E-/-mice [3] (first experiment) is on record as 85%. In addition, the results for the “Median plaque area at the aortic origin” value in the series on Apo E-/-mice [3] (setting [7]), in the series with Apo E-/-mice [3] (setting [8]) and with Apo E-/-mice [3] (setting [9]) were 0.321 mm^2, 0.422 mm^2 and 0.475 mm^2, respectively. Further, the “Neovascularization (+) aortic sinus plaques (number)” value with Apo E-/-mice [4] amounted to 1. Moreover, in the series on Apo E-/-mice [4], the “Percentage of aortic sinus plaques that contained any intimal vessels” value turned out to be 5%. Also, the “Cell Density, median” value with Apo E-/-mice [5] is 1645 cells/mm^2; in the series with Apo E-/-mice [5] (listed as Endostatin), 1646 (962-2361) cells/mm^2. The entries for the “SMC (%), median smooth muscle cell content of aortic sinus lesions” value in the series on Apo E-/-mice [6] and in the series on Apo E-/-mice [6] (listed as Endostatin) were 19.4% and 19.4 (16.2-22.7) %, respectively.
On to “O-chloracetyl-carbamoylfumagillol [TNP-470]”, for which, in series [1] (all studies, control 91%), the “Percentage of animals available for analysis” value was 89%. The “Weight gained during treatment” value in series [1] (treated age 20 to 36 weeks, control 8 g) is 4 g. Also, the “Median weight after treatment” value in series [1] (treated age 20 to 36 weeks, control 35 g) was 31 g. In series [1] (treated age 32 to 48 weeks, control 35 g), this substance returned a Final weight of 33 g. Further, in the series on Apo E-/-mice [2], the “Median percent plaque area of the entire aorta (Sudan IV-positive lesions)” value was found to be 11.7% and the “Plaque surface area on photographed images of the entire aorta” value was “noticeable reduction”. In the series on angiogenesis, the Inhibition of angiogenesis is 70%. In the series with Apo E-/-mice [3], the “Plaque measurements at the aortic origin versus control” value is recorded as “no difference”. Further, the “Inhibition of plaque growth” value in the series with Apo E-/-mice [3] (first experiment) is 70%. The “Median plaque area at the aortic origin” value with Apo E-/-mice [3] (setting [7]) is 0.402 mm^2. The “Median plaque area at the aortic origin” value in the series with Apo E-/-mice [3] (setting [8]) is on record as 0.448 mm^2. In addition, the “Median plaque area at the aortic origin” value with Apo E-/-mice [3] (setting [9]) stood at 0.370 mm^2. In the series on Apo E-/-mice [4], the “Neovascularization (+) aortic sinus plaques (number)” value is recorded as 0 and the “Percentage of aortic sinus plaques that contained any intimal vessels” value amounted to 0%. Also, in the series with Apo E-/-mice [6], the “SMC (%), median smooth muscle cell content of aortic sinus lesions” value is 19.8 (14.6-23.5) %.
